The values that follow come from patent US8546377B2 (AbbVie Inc., priority 2009, dated 2013).

For one test, the target named is T1, 5HT2B receptors (Homo sapiens, UniProt P41595).
T1 construct: expressed in transfected cells; host or cells: CHO-K1 cells
Briefly: Human 5-HT2B functional assay in CHO-K1 cells (calcium flux, FLIPR). Type of test: cell-based. To be noted: for EC50: CHO-K1 cells over-expressing 5HT2B, calcium flux, read-out: EC50 (μM), 5-HT2B Agonist Activity. In short, it runs like this: (§1)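 EC50 came from a 4-parameter logistic fit, with Emax expressed relative to serotonin, of intracellular Ca2+ rises read on FLIPR at 480/530 nm, 25° C, over 3 min. Compounds ran from 10 μM in six 1:10 steps (0.2% DMSO) on serum-starved CHO-K1 transfectants pre-loaded 60 min with Ca4 dye and probenecid.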
In general terms: Calcium flux is commonly read through the fluorescence of an indicator in the cells.

In the next test the target is T2, 5HT2C receptors (Homo sapiens, UniProt P28335).
T2 sequence (P28335 33-458): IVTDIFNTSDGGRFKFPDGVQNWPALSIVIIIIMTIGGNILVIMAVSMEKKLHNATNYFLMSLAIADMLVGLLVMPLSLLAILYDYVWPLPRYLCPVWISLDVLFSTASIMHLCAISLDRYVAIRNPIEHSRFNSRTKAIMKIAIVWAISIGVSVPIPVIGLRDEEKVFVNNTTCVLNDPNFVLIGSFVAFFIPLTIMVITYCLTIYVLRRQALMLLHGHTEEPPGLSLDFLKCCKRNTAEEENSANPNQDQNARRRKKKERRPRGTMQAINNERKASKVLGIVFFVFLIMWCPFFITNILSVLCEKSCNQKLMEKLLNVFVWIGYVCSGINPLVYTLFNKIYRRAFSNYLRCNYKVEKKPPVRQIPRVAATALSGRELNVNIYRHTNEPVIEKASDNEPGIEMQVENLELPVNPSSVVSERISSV
Put plainly: Human 5-HT2C functional assay in CHO-K1 cells (calcium flux, FLIPR). Type of test: cell-based. Details: expressed in transfected cells; host or cells: CHO-K1 cells. To be noted: for EC50: CHO-K1 cells over-expressing 5HT2C, calcium flux, read-out: EC50 (μM), 5-HT2c Agonist Activity; for Emax: percentage relative to the effect of serotonin. In short, it runs like this:
as §1

[1] abbreviates: CHO-K1 cells, read-out: Emax (%), 5-HT2c Agonist Activity.
[2] abbreviates: CHO-K1, read-out: Emax (%), 5-HT2c Agonist Activity, CHO-K1 cells.
Where [3] appears, read: CHO-K1, read-out: Emax (%), 5-HT2B Agonist Activity.
The mark [4] stands for this setting: CHO-K1 cells, percentage relative to the effect of serotonin, read-out: Emax (%), 5-HT2B Agonist Activity.

SMILES strings stand for the structures. pEC50: −log10 of the molar value. Read-outs that look alike come from different tables or passages of the source. Where only a bound is given, the exact number is not on record here.

Usually EC50 stands for the concentration needed to bring the measured effect to its halfway point. Usually Emax stands for the size of the effect at its maximum, as opposed to the concentration needed. By pEC50 is commonly meant the EC50 on a negative log10 scale, so that one unit is a factor of ten.

T1 sequence (P41595 whole entry): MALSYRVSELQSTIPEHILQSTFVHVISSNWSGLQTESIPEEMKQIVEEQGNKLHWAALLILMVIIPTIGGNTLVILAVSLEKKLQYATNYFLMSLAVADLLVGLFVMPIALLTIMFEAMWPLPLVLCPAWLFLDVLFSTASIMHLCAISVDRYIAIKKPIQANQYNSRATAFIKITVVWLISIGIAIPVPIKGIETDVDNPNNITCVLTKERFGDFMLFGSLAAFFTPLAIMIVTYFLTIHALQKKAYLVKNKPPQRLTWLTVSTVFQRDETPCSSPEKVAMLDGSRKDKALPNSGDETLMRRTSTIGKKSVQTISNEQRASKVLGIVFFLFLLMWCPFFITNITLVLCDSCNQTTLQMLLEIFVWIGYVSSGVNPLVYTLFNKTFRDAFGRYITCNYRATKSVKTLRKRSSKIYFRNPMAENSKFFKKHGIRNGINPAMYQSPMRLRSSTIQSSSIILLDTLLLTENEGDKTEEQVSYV

As for `O=C1CC2CNCCN2c2cc(-c3cccc4ccccc34)ccc2N1` (stereo not shown) [Example 67, 10-(1-naphthyl)-1,2,3,4,4a,5-hexahydropyrazino[1,2-a][1,5]benzodiazepin-6(7H)-one], the EC50 on 5HT2B receptors was greater than 10 µM; at 5HT2C receptors, 0.2 µM. Also, on 5HT2C receptors (setting [1]), the Emax was determined as 110%.

`CN1CCN2c3cccc(F)c3NC(=O)CC2C1` (stereo not shown) [Example 79, 8-fluoro-3-methyl-1,2,3,4,4a,5-hexahydropyrazino[1,2-a][1,5]benzodiazepin-6(7H)-one]: the pEC50 at 5HT2B receptors was less than 5.00; on 5HT2C receptors, 7.52. Further, the Emax on 5HT2C receptors (setting [2]) was found to be 100%.

With `O=C1CC2CNCCN2c2ccc(Cl)cc2N1` (stereo not shown) [Example 51, 9-chloro-1,2,3,4,4a,5-hexahydropyrazino[1,2-a][1,5]benzodiazepin-6(7H)-one], the pEC50 at 5HT2B receptors is less than 5.00; on 5HT2C receptors, 7.15. The Emax on 5HT2C receptors (setting [2]) was 90%.

Turning to `Cc1ccc2c(c1)N1CCNC[C@H]1CCO2` [Example 257, (4aR)-10-methyl-2,3,4,4a,5,6-hexahydro-1H-pyrazino[2,1-d][1,5]benzoxazepine], the values for the pEC50 on 5HT2B receptors and on 5HT2C receptors were 7.70 and 9.00, respectively. The Emax at 5HT2B receptors (setting [3]) came to 60%; at 5HT2C receptors (setting [2]), 90%.

For the compound `CC(C)Oc1cccc(-c2ccc3c(c2)N2CCNC[C@@H]2CC(=O)N3)c1` [Example 117, (4aS)-10-(3-isopropoxyphenyl)-1,2,3,4,4a,5-hexahydropyrazino[1,2-a][1,5]benzodiazepin-6(7H)-one], the EC50 is greater than 10 µM on 5HT2B receptors and 0.001 µM at 5HT2C receptors. Besides, the Emax on 5HT2C receptors (setting [1]) is greater than 120%.

Turning to `c1ccc(CN2CCN3c4ccccc4OCC[C@H]3C2)cc1` [Example 168, (4aS)-3-benzyl-2,3,4,4a,5,6-hexahydro-1H-pyrazino[2,1-d][1,5]-benzoxazepine], the EC50 on 5HT2B receptors was greater than 10 µM; at 5HT2C receptors it was 0.9 µM. The Emax at 5HT2C receptors (setting [1]) amounted to 50%.

As for `O=C1CC2CNCCN2c2cc(COc3cccc(F)c3)ccc2N1` (stereo not shown) [Example 114, 10-[(3-fluorophenoxy)methyl]-1,2,3,4,4a,5-hexahydropyrazino[1,2-a][1,5]benzodiazepin-6(7H)-one], the EC50 turned out to be 0.4 µM at 5HT2B receptors and 0.05 µM on 5HT2C receptors. Moreover, the Emax was 30% on 5HT2B receptors (setting [4]) and greater than 120% on 5HT2C receptors (setting [1]).

On to `O=C1C[C@H]2CNCCN2c2ccc(Cl)cc2N1` [Example 55, (4aS)-9-chloro-1,2,3,4,4a,5-hexahydropyrazino[1,2-a][1,5]benzodiazepin-6(7H)-one], for which the pEC50 is less than 5.00 on 5HT2B receptors and 7.70 at 5HT2C receptors. In addition, the Emax on 5HT2C receptors (setting [2]) is greater than 120%.

As to `Clc1ccc2c(c1)OCC[C@@H]1CNCCN21` [Example 260, (4aR)-9-chloro-2,3,4,4a,5,6-hexahydro-1H-pyrazino[2,1-d][1,5]benzoxazepine], the pEC50 was 7.52 on 5HT2B receptors and 9.52 on 5HT2C receptors. In addition, the Emax at 5HT2B receptors (setting [3]) was 90%; at 5HT2C receptors (setting [2]), 100%.

On to `CN1C(=O)CC2CNCCN2c2cc(CCc3ccccc3)ccc21` (stereo not shown) [Example 151, 7-methyl-10-(2-phenylethyl)-1,2,3,4,4a,5-hexahydropyrazino[1,2-a][1,5]benzodiazepin-6(7H)-one], for which the EC50 at 5HT2B receptors is 5 µM; on 5HT2C receptors it was 0.07 µM. Further, the results for the Emax at 5HT2B receptors (setting [4]) and at 5HT2C receptors (setting [1]) were 30% and 110%, respectively.

In the case of `Cc1cccc2c1OCC[C@H]1CN(C)CCN21` [Example 242, (4aS)-3,8-dimethyl-2,3,4,4a,5,6-hexahydro-1H-pyrazino[2,1-d][1,5]benzoxazepine], the results for the pEC50 at 5HT2B receptors and on 5HT2C receptors were less than 5.00 and 8.70, respectively. Also, the Emax on 5HT2C receptors (setting [2]) was 80%.

Consider `C[C@@H](Oc1ccc2c(c1)N1CCNCC1CC(=O)N2)c1ccccc1F` (stereo partly drawn) [Example 161, 10-[(1R)-1-(2-fluorophenyl)ethoxy]-1,2,3,4,4a,5-hexahydropyrazino[1,2-a][1,5]benzodiazepin-6(7H)-one], for which the results for the EC50 at 5HT2B receptors and at 5HT2C receptors were 1 µM and 0.01 µM, respectively. The Emax on 5HT2B receptors (setting [4]) is 20%; on 5HT2C receptors (setting [1]) it was 120%.

As to `FC(F)(F)c1ccc2c(c1)OCC[C@H]1CNCCN21` [Example 216, (4aS)-9-(trifluoromethyl)-2,3,4,4a,5,6-hexahydro-1H-pyrazino[2,1-d][1,5]benzoxazepine], the EC50 on 5HT2B receptors is greater than 10 µM; on 5HT2C receptors it was 0.07 µM. Further, the Emax at 5HT2C receptors (setting [1]) stood at 55%.

Consider `O=C1CC2CNCCN2c2cc(-c3ccccc3-c3ccccc3)ccc2N1` (stereo not shown) [Example 64, 10-(biphenyl-2-yl)-1,2,3,4,4a,5-hexahydropyrazino[1,2-a][1,5]benzodiazepin-6(7H)-one], for which the figures for the EC50 at 5HT2B receptors and on 5HT2C receptors were 1 µM and 0.03 µM, respectively. For the same compound, the Emax was 15% at 5HT2B receptors (setting [4]) and 110% at 5HT2C receptors (setting [1]).

Take `O=C1CC2CNCCN2c2cc(-c3ccoc3)ccc2N1` (stereo not shown) [Example 69, 10-(3-furyl)-1,2,3,4,4a,5-hexahydropyrazino[1,2-a][1,5]benzodiazepin-6(7H)-one]: the EC50 turned out to be 0.09 µM at 5HT2B receptors and 0.02 µM at 5HT2C receptors. Also, the Emax worked out at 80% at 5HT2B receptors (setting [4]) and 110% on 5HT2C receptors (setting [1]).

Consider `CN1CCN2c3ccc(Cl)cc3OCC[C@H]2C1` [Example 220, (4aS)-9-chloro-3-methyl-2,3,4,4a,5,6-hexahydro-1H-pyrazino[2,1-d][1,5]benzoxazepine], for which the pEC50 is less than 5.00 at 5HT2B receptors and 7.40 on 5HT2C receptors. For the same compound, the Emax on 5HT2C receptors (setting [2]) came out at 40%.

With `Cc1ccc2c(c1)NC(=O)CC1CNCCN21` (stereo not shown) [Example 49, 9-methyl-1,2,3,4,4a,5-hexahydropyrazino[1,2-a][1,5]benzodiazepin-6(7H)-one], the results for the pEC50 on 5HT2B receptors and at 5HT2C receptors were less than 5.00 and 7.22, respectively. Also, the Emax on 5HT2C receptors (setting [2]) is 100%.

`O=C1C[C@@H]2CNCCN2c2cccc(F)c2N1` [Example 83, (4aR)-8-fluoro-1,2,3,4,4a,5-hexahydropyrazino[1,2-a][1,5]benzodiazepin-6(7H)-one]: the figures for the pEC50 at 5HT2B receptors and at 5HT2C receptors were 5.98 and 6.12, respectively. The Emax on 5HT2B receptors (setting [3]) was 27%; on 5HT2C receptors (setting [2]) it was greater than 120%.

`c1ccc2c(c1)OCC[C@@H]1CNCCN21` [Example 255, (4aR)-2,3,4,4a,5,6-hexahydro-1H-pyrazino[2,1-d][1,5]benzoxazepine]: the values for the pEC50 on 5HT2B receptors and on 5HT2C receptors were 7.05 and 9.00, respectively. Also, the Emax on 5HT2B receptors (setting [3]) stood at 70%; on 5HT2C receptors (setting [2]), 95%.

In the case of `C[C@H](Cc1ccccc1)Oc1ccc2c(c1)N1CCNC[C@H]1CC(=O)N2` [Example 166, (4aR)-10-{[(2R)-1-phenylpropan-2-yl]oxy}-1,2,3,4,4a,5-hexahydropyrazino[1,2-a][1,5]benzodiazepin-6(7H)-one], the figures for the EC50 on 5HT2B receptors and at 5HT2C receptors were greater than 10 µM and 0.04 µM, respectively. The Emax at 5HT2C receptors (setting [1]) is greater than 120%.

As for `Cc1ccc(-c2ccc3c(c2)N2CCNC[C@@H]2CCO3)cc1` [Example 191, (4aS)-10-(4-methylphenyl)-2,3,4,4a,5,6-hexahydro-1H-pyrazino[2,1-d][1,5]benzoxazepine], the EC50 was greater than 10 µM on 5HT2B receptors and 0.4 µM at 5HT2C receptors. The Emax at 5HT2C receptors (setting [1]) was greater than 120%.

As to `O=C1CC2CNCCN2c2cc(Cc3ccccc3)ccc2N1` (stereo not shown) [Example 185, 10-benzyl-1,2,3,4,4a,5-hexahydropyrazino[1,2-a][1,5]benzodiazepin-6(7H)-one], the EC50 on 5HT2B receptors is greater than 10 µM; on 5HT2C receptors it was 0.03 µM. For the same compound, on 5HT2C receptors (setting [1]), the Emax was greater than 120%.

Regarding `O=C1C[C@H]2CNCCN2c2cc(OCCc3ccccc3Cl)ccc2N1` [Example 172, (4aS)-10-[2-(2-chlorophenyl)ethoxy]-1,2,3,4,4a,5-hexahydropyrazino[1,2-a][1,5]benzodiazepin-6(7H)-one], the EC50 at 5HT2B receptors was greater than 10 µM; at 5HT2C receptors, 0.002 µM. Further, the Emax on 5HT2C receptors (setting [1]) is greater than 120%.

As for `CC(C)c1cccc(-c2ccc3c(c2)N2CCNCC2CC(=O)N3)c1` (stereo not shown) [Example 92, 10-(3-isopropylphenyl)-1,2,3,4,4a,5-hexahydropyrazino[1,2-a][1,5]benzodiazepin-6(7H)-one], the EC50 was greater than 10 µM on 5HT2B receptors and 0.02 µM at 5HT2C receptors. For the same compound, the maximal effect (Emax) at 5HT2C receptors (setting [1]) is greater than 120%.

With `O=C1CC2CNCCN2c2cc(-c3cnn(Cc4ccccc4)c3)ccc2N1` (stereo not shown) [Example 56, 10-(1-benzyl-1H-pyrazol-4-yl)-1,2,3,4,4a,5-hexahydropyrazino[1,2-a][1,5]benzodiazepin-6(7H)-one], the EC50 on 5HT2B receptors is greater than 10 µM; at 5HT2C receptors, 1 µM. Moreover, the Emax at 5HT2C receptors (setting [1]) was 110%.

As to `FC(F)(F)c1ccc2c(c1)N1CCNC[C@@H]1CCO2` [Example 217, (4aS)-10-(trifluoromethyl)-2,3,4,4a,5,6-hexahydro-1H-pyrazino[2,1-d][1,5]benzoxazepine], the results for the EC50 at 5HT2B receptors and at 5HT2C receptors were 0.09 µM and 0.01 µM, respectively. For the same compound, the Emax is 70% on 5HT2B receptors (setting [4]) and 100% at 5HT2C receptors (setting [1]).
